Source: PubChem BioAssay (NCI)
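Test compounds were applied to cells in 96-well plates for 48 hours at 5 doses. At the TGI there is no net growth.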

Columns and labels:
Test in all cases: NCI-60 cell line screen, 48 h
786-0 renal = test system: 786-0 renal
A549 NSCLC = test system: A549 NSCLC
ACHN renal = test system: ACHN renal
BT-549 breast = test system: BT-549 breast
CAKI-1 renal = test system: CAKI-1 renal
CCRF-CEM leukemia = test system: CCRF-CEM leukemia
COLO 205 colon = test system: COLO 205 colon
DU-145 prostate = test system: DU-145 prostate
EKVX NSCLC = test system: EKVX NSCLC
HCT-116 colon = test system: HCT-116 colon
HCT-15 colon = test system: HCT-15 colon
HL-60(TB) leukemia = test system: HL-60(TB) leukemia
HOP-62 NSCLC = test system: HOP-62 NSCLC
HOP-92 NSCLC = test system: HOP-92 NSCLC
HS 578T breast = test system: HS 578T breast
HT29 colon = test system: HT29 colon
IGROV1 ovarian = test system: IGROV1 ovarian
K-562 leukemia = test system: K-562 leukemia
KM12 colon = test system: KM12 colon
LOX IMVI melanoma = test system: LOX IMVI melanoma
M14 melanoma = test system: M14 melanoma
MALME-3M melanoma = test system: MALME-3M melanoma
MDA-MB-231 breast = test system: MDA-MB-231 breast
MDA-MB-435 = test system: MDA-MB-435
MDA-N = test system: MDA-N
MOLT-4 leukemia = test system: MOLT-4 leukemia
NCI-H226 lung = test system: NCI-H226 lung
NCI-H23 lung = test system: NCI-H23 lung
NCI-H460 lung = test system: NCI-H460 lung
NCI-H522 lung = test system: NCI-H522 lung
NCI/ADR-RES ovarian = test system: NCI/ADR-RES ovarian
OVCAR-3 ovarian = test system: OVCAR-3 ovarian
OVCAR-4 ovarian = test system: OVCAR-4 ovarian
OVCAR-5 ovarian = test system: OVCAR-5 ovarian
OVCAR-8 ovarian = test system: OVCAR-8 ovarian
PC-3 prostate = test system: PC-3 prostate
RPMI-8226 leukemia = test system: RPMI-8226 leukemia
RXF 393 renal = test system: RXF 393 renal
SF-268 CNS = test system: SF-268 CNS
SF-295 CNS = test system: SF-295 CNS
SF-539 CNS = test system: SF-539 CNS
SK-MEL-2 melanoma = test system: SK-MEL-2 melanoma
SK-MEL-28 melanoma = test system: SK-MEL-28 melanoma
SK-MEL-5 melanoma = test system: SK-MEL-5 melanoma
SK-OV-3 ovarian = test system: SK-OV-3 ovarian
SN12C renal = test system: SN12C renal
SNB-19 CNS = test system: SNB-19 CNS
SNB-75 CNS = test system: SNB-75 CNS
SR leukemia = test system: SR leukemia
SW-620 colon = test system: SW-620 colon
T-47D breast = test system: T-47D breast
TK-10 renal = test system: TK-10 renal
U251 CNS = test system: U251 CNS
UACC-257 melanoma = test system: UACC-257 melanoma
UO-31 renal = test system: UO-31 renal
A498 renal = test system: A498 renal
HCC-2998 colon = test system: HCC-2998 colon
MCF7 breast = test system: MCF7 breast
UACC-62 melanoma = test system: UACC-62 melanoma

`COc1ccc(-c2cc(-c3cc(F)c(Cl)cc3Cl)[nH]n2)cc1OC` was tested, and the TGI (786-0 renal) was 42.4 µM, the TGI (A549 NSCLC) was > 100 µM and the TGI (ACHN renal) was 30.4 µM. The TGI (BT-549 breast) was > 100 µM, the TGI (CAKI-1 renal) was > 100 µM and the TGI (CCRF-CEM leukemia) was 75.9 µM. The TGI (COLO 205 colon) was 47 µM, the TGI (DU-145 prostate) was > 100 µM and the TGI (EKVX NSCLC) was > 100 µM. For the same compound, the TGI (HCT-116 colon) was 83.6 µM, the TGI (HCT-15 colon) was > 100 µM and the TGI (HL-60(TB) leukemia) was 55 µM. For the same compound, the TGI (HOP-62 NSCLC) was > 100 µM, the TGI (HOP-92 NSCLC) was 67.8 µM and the TGI (HS 578T breast) was > 100 µM. The TGI (HT29 colon) was 76.6 µM, the TGI (IGROV1 ovarian) was > 100 µM and the TGI (K-562 leukemia) was > 100 µM. For the same compound, the TGI (KM12 colon) was > 100 µM, the TGI (LOX IMVI melanoma) was 42.1 µM and the TGI (M14 melanoma) was > 100 µM. The TGI (MALME-3M melanoma) was > 100 µM, the TGI (MDA-MB-231 breast) was > 100 µM and the TGI (MDA-MB-435) was > 100 µM. For the same compound, the TGI (MDA-N) was > 100 µM, the TGI (MOLT-4 leukemia) was > 100 µM and the TGI (NCI-H226 lung) was 52.5 µM. For the same compound, the TGI (NCI-H23 lung) was > 100 µM, the TGI (NCI-H460 lung) was > 100 µM and the TGI (NCI-H522 lung) was 81.8 µM. For the same compound, the TGI (NCI/ADR-RES ovarian) was > 100 µM, the TGI (OVCAR-3 ovarian) was 41.3 µM and the TGI (OVCAR-4 ovarian) was > 100 µM. For the same compound, the TGI (OVCAR-5 ovarian) was > 100 µM, the TGI (OVCAR-8 ovarian) was > 100 µM and the TGI (PC-3 prostate) was 79.1 µM. For the same compound, the TGI (RPMI-8226 leukemia) was 41 µM, the TGI (RXF 393 renal) was 43.8 µM and the TGI (SF-268 CNS) was > 100 µM. For the same compound, the TGI (SF-295 CNS) was 73.7 µM, the TGI (SF-539 CNS) was 37.3 µM and the TGI (SK-MEL-2 melanoma) was > 100 µM. For the same compound, the TGI (SK-MEL-28 melanoma) was > 100 µM, the TGI (SK-MEL-5 melanoma) was 47.3 µM and the TGI (SK-OV-3 ovarian) was > 100 µM. The TGI (SN12C renal) was 62.9 µM, the TGI (SNB-19 CNS) was > 100 µM and the TGI (SNB-75 CNS) was 61.5 µM. The TGI (SR leukemia) was 43.8 µM, the TGI (SW-620 colon) was 74.2 µM and the TGI (T-47D breast) was > 100 µM. For the same compound, the TGI (TK-10 renal) was > 100 µM, the TGI (U251 CNS) was > 100 µM and the TGI (UACC-257 melanoma) was > 100 µM. For the same compound, the TGI (UO-31 renal) was > 100 µM.
In the case of `C/C=N\n1c(C)n[nH]c1=O`, the TGI (786-0 renal) is reported as > 100 µM, the TGI (A498 renal) is reported as > 100 µM and the TGI (A549 NSCLC) is reported as > 100 µM. For the same compound, the TGI (ACHN renal) was > 100 µM, the TGI (BT-549 breast) was > 100 µM and the TGI (CAKI-1 renal) was > 100 µM. The TGI (CCRF-CEM leukemia) was > 100 µM, the TGI (COLO 205 colon) was > 100 µM and the TGI (DU-145 prostate) was > 100 µM. For the same compound, the TGI (EKVX NSCLC) was > 100 µM, the TGI (HCC-2998 colon) was > 100 µM and the TGI (HCT-116 colon) was > 100 µM. For the same compound, the TGI (HCT-15 colon) was > 100 µM, the TGI (HL-60(TB) leukemia) was > 100 µM and the TGI (HOP-62 NSCLC) was > 100 µM. For the same compound, the TGI (HOP-92 NSCLC) was > 100 µM, the TGI (HS 578T breast) was > 100 µM and the TGI (HT29 colon) was > 100 µM. The TGI (IGROV1 ovarian) was > 100 µM, the TGI (K-562 leukemia) was > 100 µM and the TGI (KM12 colon) was > 100 µM. The TGI (LOX IMVI melanoma) was > 100 µM, the TGI (M14 melanoma) was > 100 µM and the TGI (MALME-3M melanoma) was > 100 µM. For the same compound, the TGI (MCF7 breast) was > 100 µM, the TGI (MDA-MB-435) was > 100 µM and the TGI (MDA-N) was > 100 µM. The TGI (MOLT-4 leukemia) was > 100 µM, the TGI (NCI-H226 lung) was > 100 µM and the TGI (NCI-H23 lung) was > 100 µM. For the same compound, the TGI (NCI-H460 lung) was > 100 µM, the TGI (NCI-H522 lung) was > 100 µM and the TGI (NCI/ADR-RES ovarian) was > 100 µM. For the same compound, the TGI (OVCAR-3 ovarian) was > 100 µM, the TGI (OVCAR-4 ovarian) was > 100 µM and the TGI (OVCAR-5 ovarian) was > 100 µM. The TGI (OVCAR-8 ovarian) was > 100 µM, the TGI (PC-3 prostate) was > 100 µM and the TGI (RPMI-8226 leukemia) was > 100 µM. The TGI (RXF 393 renal) was > 100 µM, the TGI (SF-268 CNS) was > 100 µM and the TGI (SF-295 CNS) was > 100 µM. The TGI (SF-539 CNS) was > 100 µM, the TGI (SK-MEL-2 melanoma) was > 100 µM and the TGI (SK-MEL-28 melanoma) was > 100 µM. For the same compound, the TGI (SK-MEL-5 melanoma) was > 100 µM, the TGI (SN12C renal) was > 100 µM and the TGI (SNB-19 CNS) was > 100 µM. The TGI (SNB-75 CNS) was > 100 µM, the TGI (SR leukemia) was > 100 µM and the TGI (SW-620 colon) was > 100 µM. The TGI (T-47D breast) was > 100 µM, the TGI (TK-10 renal) was > 100 µM and the TGI (U251 CNS) was > 100 µM. For the same compound, the TGI (UACC-257 melanoma) was > 100 µM, the TGI (UACC-62 melanoma) was > 100 µM and the TGI (UO-31 renal) was > 100 µM.
